Read-outs that look alike come from different tables or passages of the source. Where a SMILES comes first, the peptide text is derived from it. [ ]: non-standard residue; d: D form.
Columns and labels:
[1] = system: C. trachomatis serovar L2 strain 434/Bu; experiment: DCS Chlamydia trachomatis plaque assay in L2 mouse fibroblast monolayers; type: cell-based; conditions: DCS 294 μM
E. coli wt = type: cell-based, Escherichia coli; set-up: Growth rescue (culture density), E. coli wt: key: +++++: highest culture density achieved within a set; ++++: intermediate values, relative fractions of the highest culture density within a set; +++: intermediate values, relative fractions of the highest culture density within a set; ++: intermediate values, relative fractions of the highest culture density within a set; +: intermediate values, relative fractions of the highest culture density within a set; −: no bacterial growth; for Growth (culture density), E. coli wt: key: +++++: highest culture density achieved within a set; ++++: intermediate values, relative fractions of the highest culture density within a set; +++: intermediate values, relative fractions of the highest culture density within a set; ++: intermediate values, relative fractions of the highest culture density within a set; +: intermediate values, relative fractions of the highest culture density within a set; −: no bacterial growth
B. subtilis wt = type: cell-based, Bacillus subtilis; set-up: Growth rescue (culture density), B. subtilis wt: key: +++++: highest culture density achieved within a set; ++++: intermediate values, relative fractions of the highest culture density within a set; +++: intermediate values, relative fractions of the highest culture density within a set; ++: intermediate values, relative fractions of the highest culture density within a set; +: intermediate values, relative fractions of the highest culture density within a set; −: no bacterial growth; for Growth (culture density), B. subtilis wt: key: +++++: highest culture density achieved within a set; ++++: intermediate values, relative fractions of the highest culture density within a set; +++: intermediate values, relative fractions of the highest culture density within a set; ++: intermediate values, relative fractions of the highest culture density within a set; +: intermediate values, relative fractions of the highest culture density within a set; −: no bacterial growth
E. coli ΔddlA ΔddlB = type: cell-based, Escherichia coli; note: key: +++++: highest culture density achieved within a set; ++++: intermediate values, relative fractions of the highest culture density within a set; +++: intermediate values, relative fractions of the highest culture density within a set; ++: intermediate values, relative fractions of the highest culture density within a set; +: intermediate values, relative fractions of the highest culture density within a set; −: no bacterial growth
[2] = system: C. trachomatis serovar L2 strain 434/Bu; experiment: Labeling of chlamydial PG in infected L2 cells; type: cell-based, Chlamydia trachomatis; conditions: grown for 18 h in the presence of antibiotic (DCS 294 μM or ampicillin 2.8 μM)
E. coli cells = experiment: PG labeling of E. coli with dipeptide probes, click chemistry and epifluorescence microscopy; type: cell-based, Escherichia coli; conditions: 0.5 mM, 45 min; clicked to Alexa Fluor 488 azide
B. subtilis cells = type: cell-based, Bacillus subtilis
E. coli = experiment: FDAA/CDAA labeling of E. coli, fluorescence microscopy; type: cell-based, Escherichia coli; conditions: 2%-8% of doubling time
A. tumefaciens = experiment: Control experiment with fluorescent D-Ala and L-Ala in A. tumefaciens; type: cell-based, Agrobacterium tumefaciens
Procedure: Control experiments were carried out in A. tumefaciens, B. subtilis and E. coli with fluorescent D-Ala (D-HCC) and fluorescent L-Ala (L-HCC). […] This observation was true for all strains tested.

For C[C@@H](N)C(=O)O [D-Ala, D-alanine], the Plaque formation ([1]; amino acid to DCS ratio 1:1) was “++++” and the Plaque formation ([1]; amino acid to DCS ratio 1:10) was “+++”.
With C[C@@H](N)C(=O)N[C@H](C)C(=O)O [DA-DA, D-alanyl-D-alanine] (H-[dA]-[dA]-OH) the “Growth rescue (culture density), E. coli wt” value (E. coli wt) was “++”, the “Growth rescue (culture density), B. subtilis wt” value (B. subtilis wt) was “++++” and the “Growth rescue (culture density), E. coli Δddla, Δddlb” value (shortened to “Growth rescue … Δddlb”) (E. coli ΔddlA ΔddlB; MM (M9 + 0.2% glucose) + 25 μM, initial inoculum OD600 = 0.025) was “++”. The “Growth rescue … Δddlb” value (E. coli ΔddlA ΔddlB; MM + 25 μM, initial inoculum OD600 = 0.0025) was “+”, the “Growth rescue … Δddlb” value (E. coli ΔddlA ΔddlB; MM + 200 μM, initial inoculum OD600 = 0.025) was “+++++” and the Plaque formation ([1]; amino acid to DCS ratio 1:1) was “++”. For the same compound, the Plaque formation ([1]; amino acid to DCS ratio 10:1) was “+++”.
N[C@@H]1CONC1=O [DCS, D-cycloserine] was tested, and the “Morphology of chlamydial RBs grown with antibiotic” value [2] was “inclusions contained enlarged, aberrant RBs”, the “Growth (culture density), E. coli wt” value (E. coli wt) was “−” and the “Growth (culture density), B. subtilis wt” value (B. subtilis wt) was “−”. For the same compound, the Plaque formation ([1]; no amino acid) was “−”.
For C#CN[C@@H](C)C(=O)N[C@@H](C)C(=O)O [ELA-LA, ethynyl-L-alanyl-L-alanine], the “PG labeling signal, L-enantiomer control” value (E. coli cells) was “No labeling was observed”, the “PG labeling signal, L-enantiomer control” value (B. subtilis cells) was “No labeling was observed” and the “Growth rescue … Δddlb” value (E. coli ΔddlA ΔddlB; MM + 0.8 mM, initial inoculum OD600 = 0.025) was “−”. For the same compound, the “Growth rescue … Δddlb” value (E. coli ΔddlA ΔddlB; MM + DA-DA (25 μM) + 0.80 mM of the analog, initial inoculum OD600 = 0.0025) was “+”.
NC(CNC(=O)c1cc2ccc(O)cc2oc1=O)C(=O)O (stereo not drawn) [HADA] was tested, and the “Localization of signal after short labeling times” value (E. coli) was “preferential localization of the signal at the septal plane of pre-divisional cells and in punctate patterns on the lateral walls of elongating cells” and the “Incorporation into the cell wall” value (A. tumefaciens) was “incorporated into the cell wall”.
In the case of N[C@@H](CNC(=O)c1cc2ccc(O)cc2oc1=O)C(=O)O [HALA], the “Incorporation into the cell wall” value (A. tumefaciens) is reported as “only D-HCC was incorporated into the cell wall”.
CC1(C)S[C@@H]2[C@H](NC(=O)[C@H](N)c3ccccc3)C(=O)N2[C@H]1C(=O)O [ampicillin] was tested, and the “Morphology of chlamydial RBs grown with antibiotic” value [2] was “inclusions contained enlarged, aberrant RBs”.

Reference: patent US20160222430A1, “D-ALA-D-ALA-BASED DIPEPTIDES AS TOOLS FOR IMAGING PEPTIDOGLYCAN BIOSYNTHESIS” (INDIANA UNIVERSITY RESEARCH AND TECHNOLOGY CORPORATION, priority 2013, published 2016)
